Test results from patent US8859628B2, “Method for preventing, treating and diagnosing disorders of protein aggregation” (priority 2003, dated 2014).
Entries after “also recorded” stand apart in the source; their conditions may differ.

Experiments:
TgCRND8 mice [1] = assay: Plasma Aβ levels; format: in vivo, mouse
Procedure: (§1) Plasma and Cerebral Aβ Content—Hemi-brain samples were homogenized in a buffered sucrose solution, followed by either 0.4% diethylamine/100 mM NaCl for soluble Aβ levels or cold formic acid for the isolation of total Aβ. After neutralization the samples were diluted and analyzed for Aβ40 and Aβ42 using commercially available kits (BIOSOURCE International). Each hemisphere was analyzed in triplicate with the mean±SEM reported. Western blot analyses were performed on all fractions using urea gels for Aβ species analyses. Aβ was detected using 6E10 (BIOSOURCE International) and Enhanced Chemiluminenscence (Amersham).
as §1, with “reported.” for “reported. Western blot analyses were performed on all fractions using urea gels for Aβ species analyses. Aβ was detected using 6E10 (BIOSOURCE International) and Enhanced Chemiluminenscence (Amersham).”

TgCRND8 mice [2] = assay: Morris Water Maze, spatial reference memory version, three-day trial paradigm (treatment/reversal study); format: in vivo, mouse; conditions: for cognitive function, treated TgCRND8 mice vs non-Tg littermates (words): 1 month treatment from 5 months of age, three-day paradigm
Procedure: A cohort entered the study at 5 months of age and outcomes were analyzed at 6-months of age. The body weight, coat characteristics and in cage behavior was monitored. All experiments were performed according to the Canadian Council on Animal Care guidelines.
(§2) Behavioral Test—Reversal Study—Mice entered the Morris water maze test with a hidden platform on day one without pretraining. Mice were tested for 3 days with six trials per day. On the fourth day, the platform was removed from the pool and each mouse received one 30-s swim probe trial. On the last day the animals underwent a cue test in order to evaluate swimming ability, eye sight and general cognition. The cue test is composed at the platform being placed in a different quadrant than that used for testing and is tagged with a flag. Animals are allowed 60 s to find the platform. […] Behavioural data was analysed using a mixed model of factorial analysis of variance (ANOVA) with drug or genotype and training sessions as repeated measure factors.
The cognitive function of TgCRND8 mice was assessed using the spatial reference memory version of the Morris Water Maze using a three day trial paradigm (FIGS. 4-8).
Behavioural data was analysed using a mixed model of factorial analysis of variance (ANOVA) with drug and genotype as between subject variables and training sessions as within subject variable.
(§3) In these experiments, the dosage and oral administration of compounds, and the behavioral and neurochemical assays were the same as those employed in the above treatment experiments.

TgCRND8 mice [3] = conditions: mouse, in vivo
Text: Animals were sacrificed after one month of treatment and analysed for pathological outcomes.
as §3

TgCRND8 mice [4] = assay: Cerebral Aβ content (Aβ40 and Aβ42 kits on hemi-brain homogenates); format: in vivo, mouse; parameters: Total Aβ: unit not given here
Procedure: as §1
as §1, with “reported.” for “reported. Western blot analyses were performed on all fractions using urea gels for Aβ species analyses. Aβ was detected using 6E10 (BIOSOURCE International) and Enhanced Chemiluminenscence (Amersham).”

TgCRND8 mice [5] = assay: Morris Water Maze, spatial reference memory version, five-day trial paradigm (prevention study); format: in vivo, mouse; conditions: 6 months of age
Procedure: Age and sex-matched cohorts of TgCRND8 mice and non-transgenic littermates (n=35 in each cohort) were either untreated, or were given a compound of the present invention as indicated below at 30 mg/day/mouse beginning at age of about 6 weeks. The mice were followed for outcome measures cognitive function, brain Aβ levels, brain pathology, and survival at 4 months and 6 months of age.
Two cohorts entered the study at 6 weeks of age and outcomes were analyzed at 4- and 6-months of age. The body weight, coat characteristics and in cage behavior was monitored. All experiments were performed according to the Canadian Council on Animal Care guidelines.
(§4) Behavioral tests—After non-spatial pre-training, mice underwent place discrimination training for 5 days with 4 trials per day. Behavioral data was analyzed using a mixed model of factorial analysis of variance (ANOVA) with drug or genotype and training sessions as repeated measure factors.
The cognitive function of TgCRND8 mice was assessed using the spatial reference memory version of the Morris Water Maze using a five-day trial paradigm (FIGS. 1C-1H). […] The improved performance was also not due to nutritional or caloric effects because body weight, activity, and coat condition were not different between treated and untreated cohorts. […] Gender effects were not significant between any treatment group (p=0.85).

TgCRND8 mice [6] = assay: Cerebral amyloid plaque burden (anti-Aβ immunostaining, image analysis); format: in vivo, mouse; conditions: for amyloid/plaque burden vs untreated (words) / mean plaque size: prevention
Procedure: (§5) Cerebral amyloid burden—Brains were removed and one hemisphere was fixed in 4% paraformaldehyde and embedded in paraffin wax in the mid saggital plane. To generate sets of systematic uniform random sections, 5 μm serial sections were collected across the entire hemisphere. Sets of sections at […] intervals were used for analyses (10-14 sections/set). Plaque were identified after antigen retrieval with formic acid, and incubated with primary anti-Aβ antibody (Dako M-0872), followed by secondary antibody (Dako StreptABCcomplex/horseradish kit). End products were visualized with DAB counter-stained with hematoxylin. Amyloid plaque burden was assessed using Leco IA-3001 image analysis software interfaced with Leica microscope and Hitachi KP-M1U CCD video camera. Vascular burden was analyzed similarly and a dissector was used to measure the diameter of affected vessels.
as §5, with “camera.” for “camera. Vascular burden was analyzed similarly and a dissector was used to measure the diameter of affected vessels.”

non-Tg littermates = assay: Morris Water Maze performance of treated non-Tg littermates; format: in vivo, mouse; conditions: treated vs untreated non-Tg
Procedure: as §4, §2

TgCRND8 mice [7] = assay: Vascular amyloid burden; format: in vivo, mouse; conditions: prevention, 6 months of age
Procedure: as §5
Alzheimer's disease is characterized by the presence of both parenchymal and vascular amyloid deposits. In untreated 6 month old TgCRND8 mice approximately 0.03% of the brain area is associated with vascular amyloid.

TgCRND8 mice [8] = assay: Gliosis quantitation (GFAP astrocytes, CD68 microglia); format: in vivo, mouse; conditions: prevention
Text: Gliosis Quantitation—Five randomly selected, evenly spaced, sagittal sections were collected from paraformaldehyde-fixed and frozen hemispheres of treated and control mice. Sections were immunolabelled for astrocytes with anti-rat GFAP IgG2a (Dako; diluted 1:50) and for microglia with anti-rat CD68 IgG2b (Dako; 1:50).
Serial sagittal sections were stained with the astrocytic marker glial fibrillary acidic protein (GFAP) and quantitated for percent brain area covered by astrogliosis.

Aβ42 = biological target: T1, Aβ42 (Homo sapiens, UniProt P05067); conditions: cited from earlier work
T1 construct: The importance of residues 1-42 (Aβ42) in Alzheimer's disease was highlighted
T1 sequence (P05067 672-713 limits assumed): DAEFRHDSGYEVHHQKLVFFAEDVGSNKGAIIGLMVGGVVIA

amyloid-beta peptide = conditions: cited from earlier work
TgCRND8 mice [9] = assay: Survival census (Kaplan-Meier); format: in vivo, mouse; conditions: vs untreated TgCRND8
Procedure: Survival Census—The probability of survival was assessed by the Kaplan-Meier technique, computing the probability of survival at every occurrence of death, thus making it suitable for small sample sizes. For the analyses of survival, 35 mice were used for each treatment group. The comparison between treatments was reported using the Tarone-Ware test.

[10] = 28 days treatment from 5 months of age
[11] = 1 month treatment from 5 months of age
[12] = 1 month treatment, 30 mg/mouse/day from 5 months, analyzed at 6 months of age
[13] = 4 month prevention, 30 mg/mouse/day from 6 weeks of age
[14] = 6 month prevention, 30 mg/mouse/day from 6 weeks of age

In the case of `OC1C(O)C(O)C(O)C(O)C1O` (stereo not drawn) [Allo-inositol, allo-inositol], the “effect on plasma Aβ levels in comparison to untreated (words)” value (“effect on plasma Aβ levels in comparison” for short) (TgCRND8 mice [1]; 1 month treatment from 5 months of age, listed as allo-inositol) is reported as “indistinguishable from untreated TgCRND8 plasma levels”, the “Plasma Aβ Levels” value (TgCRND8 mice [1]; allo-inositol study: 1 month treatment (28 days) from 5 months of age) is reported as 2458 ± 95 pg/mL and the “cognitive function, treated TgCRND8 mice vs non-Tg littermates (words)” value (TgCRND8 mice [2]; listed as allo-inositol) is reported as “still significantly different from that of their non-transgenic littermates”. For the same compound, the “cognitive function, treated vs untreated TgCRND8 mice (words)” value (TgCRND8 mice [2]; [10]) was “performed significantly better than untreated TgCRND8 mice”, the “effects on blood chemistry or organ function” value (TgCRND8 mice [3]) was “do not exhibit obvious deleterious effects on blood chemistry or organ function” and the ALP (TgCRND8 mice [3]; po) was 95 ± 16 U/L. It also gave an ALT (TgCRND8 mice [3]; po) of 44 ± 4 U/L, an Albumin (TgCRND8 mice [3]; po) of 32 ± 2 g/L and a Bilirubin (TgCRND8 mice [3]; po) of 2.9 ± 3 µmol/L. For the same compound, the Creatinine (TgCRND8 mice [3]; po) was 69 ± 64 µmol/L, the Globulin (TgCRND8 mice [3]; po) was 17 ± 3 g/L and the Glucose (TgCRND8 mice [3]; po) was 10 ± 3 mmol/L. The Icteria (TgCRND8 mice [3]; po) was “Normal”, the Lipemia (TgCRND8 mice [3]; po) was “Normal” and the Total protein (TgCRND8 mice [3]; po) was 48 ± 2 g/L. The Urea (TgCRND8 mice [3]; po) was 18.6 ± 13 mmol/L, the “effect on insoluble Aβ42 or Aβ40 (soluble and insoluble pools)” value (TgCRND8 mice [4]; [10]) was “did not significantly alter” and the “reduction of soluble Aβ42” value (TgCRND8 mice [4]; [10]) was 20%. For the same compound, the “Brain Aβ42 Insoluble” value (TgCRND8 mice [4]; allo-inositol study: 1 month treatment (28 days) from 5 months of age, mean ± sem) was 16336 ± 910 ng/gm wet brain.
With `OC1C(O)C(O)C(O)C(O)C1O` (stereo not drawn) [Epi-Inositol, epi-inositol] the “Plasma Aβ Levels” value (TgCRND8 mice [1]; 1 month treatment) was 2158 ± 157 pg/mL, the “effect on plasma Aβ levels in comparison” value (TgCRND8 mice [1]; 1 month treatment from 5 months of age, listed as epi-inositol) was “Neither myo-inositol, epi-inositol nor scyllo-inositol treatment had any effect on plasma Aβ levels” and the “Plasma Aβ Levels” value (TgCRND8 mice [1]; 4 month prevention) was 1082 ± 164 pg/mL. The “Plasma Aβ Levels” value (TgCRND8 mice [1]; 6 month prevention) was 952 ± 56 pg/mL, the “effect on plasma Aβ levels in comparison” value (TgCRND8 mice [1]; prevention, 4- and 6-months of age) was “Neither epi-inositol nor scyllo-inositol treatment had any effect on plasma Aβ levels” and the “cognitive function, treated TgCRND8 mice vs non-Tg littermates (words)” value (TgCRND8 mice [2]; listed as epi-inositol) was “almost significantly different”. For the same compound, the “cognitive function, treated vs untreated TgCRND8 mice (words)” value (TgCRND8 mice [5]) was “performed significantly better than untreated TgCRND8 mice”, the “plaque burden vs untreated” value (TgCRND8 mice [6]; [11]) was “not a significant decrease in the mean plaque size” and the “Plaque Area” value (TgCRND8 mice [6]; [12]) was 459706 ± 49966 μm^2. The “Plaque Count” value (TgCRND8 mice [6]; [12]) was 1342 ± 114, the “Total Plaque Area/Total Brain Area” value (TgCRND8 mice [6]; [12]) was 0.134 ± 0.017% and the “Plaque Area” value (TgCRND8 mice [6]; [13]) was 65042 ± 5199 μm^2. For the same compound, the “Plaque Count” value (TgCRND8 mice [6]; [13]) was 678 ± 64, the “Total Plaque Area/Total Brain Area” value (TgCRND8 mice [6]; [13]) was 0.020 ± 0.001% and the “Plaque Area” value (TgCRND8 mice [6]; [14]) was 380456 ± 13498 μm^2. For the same compound, the “Plaque Count” value (TgCRND8 mice [6]; [14]) was 979 ± 32, the “Total Plaque Area/Total Brain Area” value (TgCRND8 mice [6]; [14]) was 0.096 ± 0.04% and the “amyloid/plaque burden vs untreated (words)” value (TgCRND8 mice [6]; 6 months of age) was “modest effect on amyloid burden”. The mean plaque size (TgCRND8 mice [6]; 4 months of age) was 95±4.3 μm^2, the mean plaque size (TgCRND8 mice [6]; 6 months of age) was 370±9 μm^2 and the “effect on performance of non-Tg mice” value (non-Tg littermates) was “had no effect on the performance of non-Tg mice; also recorded: not effected”. For the same compound, the “vascular amyloid burden vs untreated (words)” value (TgCRND8 mice [7]) was “No difference could be detected in the vascular amyloid burden”, the “Aβ load vs untreated” value (TgCRND8 mice [4]; [11]) was “Aβ load was significantly decreased” and the “Total Aβ” value (TgCRND8 mice [4]; [12]) was 17271 ± 415. The “Total Aβ” value (TgCRND8 mice [4]; [13]) was 4802 ± 176, the “Total Aβ” value (TgCRND8 mice [4]; [14]) was 18464 ± 229 and the “brain Aβ levels compared with untreated” value (TgCRND8 mice [4]; prevention, 6 months of age) was “rose to levels similar to those observed in untreated TgCRND8 mice”. For the same compound, the “astrogliosis/gliosis vs untreated” value (TgCRND8 mice [8]; 6 months of age) was “decrease in astrogliosis”, the “astrogliosis, percent brain area covered (GFAP)” value (TgCRND8 mice [8]; 6-months of age) was 0.388±0.039% and the “microglial activation, % brain area” value (TgCRND8 mice [8]; 6 months) was 0.248±0.02%.
For `OC1C(O)C(O)C(O)C(O)C1O` (stereo not drawn) [chiro-inositol], the “structural transition from random to β-structure in Aβ42” value (Aβ42) is listed as “epi- and scyllo- but not chiro-inositol were able to induce a structural transition”.
For `O=P(O)(O)O[C@@H]1[C@H](O)[C@H](O)[C@@H](OP(=O)(O)O)[C@H](OP(=O)(O)O)[C@H]1O` [inositol-1,4,5-triphosphate], the “ability to inhibit amyloid-beta peptide fibrillogenesis” value (amyloid-beta peptide) is listed as “found not to be effective”.
In the case of `O=P(O)(O)O[C@H]1[C@H](O)[C@@H](O)[C@H](OP(=O)(O)O)[C@@H](O)[C@H]1O` [inositol-1,4-bisphosphate], the “ability to inhibit amyloid-beta peptide fibrillogenesis” value (amyloid-beta peptide) is given as “found not to be effective”.
For `O=P(O)(O)O[C@@H]1[C@@H](O)[C@H](O)[C@@H](O)[C@H](O)[C@@H]1O` [inositol-monophosphate], the “ability to inhibit amyloid-beta peptide fibrillogenesis” value (amyloid-beta peptide) is listed as “found not to be effective”.
With `OC[C@@H](O)[C@@H](O)[C@H](O)[C@H](O)CO` [mannitol, reference compound] the “cognitive function, treated TgCRND8 mice vs non-Tg littermates (words)” value (TgCRND8 mice [5]) was “significantly different from mannitol treated non-Tg littermates”, the “cognitive function, treated vs untreated TgCRND8 mice (words)” value (TgCRND8 mice [5]) was “had no effect on behavior; also recorded: indistinguishable from untreated TgCRND8 mice” and the “cognitive function, treated vs untreated TgCRND8 mice (words)” value (TgCRND8 mice [5]; listed as Mannitol) was “not significantly different from untreated TgCRND8 mice”. For the same compound, the “effect on survival of TgCRND8 mice” value (TgCRND8 mice [9]) was “had no effect on the survival of TgCRND8 mice; also recorded: not significantly different”, the “amyloid/plaque burden vs untreated (words)” value (TgCRND8 mice [6]; 6 months of age) was “did not alter the plaque load in TgCRND8 mice” and the “amyloid/plaque burden vs untreated (words)” value (TgCRND8 mice [6]; 6 months of age, listed as Mannitol) was “indistinguishable from untreated TgCRND8 mice when plaque count was used as a measure of total plaque burden”. For the same compound, the “effect on performance of non-Tg mice” value (non-Tg littermates) was “had no effect on the behaviour of non-Tg mice”.
